Assay results reported in patent US10118928B2, “Treatment of H. pylori infections using MTAN inhibitors” (ALBERT EINSTEIN COLLEGE OF MEDICINE, INC., priority 2014, dated 2018).

Tested on: H. pylori
Assay: MIC90 against H. pylori, growth on tryptic soy agar with 5% horse blood
Format: cell-based
Parameters: unit not given here
Details: 72 h, microaerophilic, 37° C.
Description: Bacterial Growth. H. pylori were grown for 72 hours under microaerophilic condition (5% O2, 10% CO2 and 85% N2) at 37° C. on tryptic soy agar with 5% horse blood. To determine the MIC values, the test substance was added to the gel solution right before pouring. To compare the zones of inhibition, specific antibiotics were added to the center of disc after spreading H. pylori, and then H. pylori was allowed to grow for 72 hours under microaerophilic condition at 37° C.

SMILES	MIC90 against H. pylori (Table 1)	MIC90 against H. pylori (Table 2)
CCCC[C@@H](CO)NCc1c[nH]c2c(N)ncnc12	16	–
CC[C@@H](CO)NCc1c[nH]c2c(N)ncnc12	>80	–
Nc1ncnc2c(CN[C@H](CO)CSCc3ccccc3)c[nH]c12	>80	–
CCCCC[C@@H](CO)NCc1c[nH]c2c(N)ncnc12	8	–
CCCCCCCCNCc1c[nH]c2c(N)ncnc12	–	>80
Nc1ncnc2c(CN[C@H](CO)CSc3ccc(Cl)cc3)c[nH]c12	>80	–
CSC[C@@H](O)[C@@H](CO)NCc1c[nH]c2c(N)ncnc12	>80	–
Nc1ncnc2c(CNCCO)c[nH]c12	–	>80
C[C@@H](CO)NCc1c[nH]c2c(N)ncnc12	>80	–
CSC[C@@H](CO)NCc1c[nH]c2c(N)ncnc12	>80	–
CCCCCC[C@@H](CO)NCc1c[nH]c2c(N)ncnc12	8	–
CC(C)[C@@H](CO)NCc1c[nH]c2c(N)ncnc12	>80	–
CCC[C@@H](CO)NCc1c[nH]c2c(N)ncnc12	40	–
CC[C@H](C)[C@@H](CO)NCc1c[nH]c2c(N)ncnc12	>80	–
CSC[C@H](O)[C@H](CO)NCc1c[nH]c2c(N)ncnc12	>80	–
CCCCCCCSC[C@@H](CO)NCc1c[nH]c2c(N)ncnc12	80	–
CC(C)C[C@@H](CO)NCc1c[nH]c2c(N)ncnc12	>80	–
CSC[C@H](CO)NCc1c[nH]c2c(N)ncnc12	>80	–
Nc1ncnc2c(CN[C@H](CO)CSc3cnccn3)c[nH]c12	8	–
CCCC[C@H](CO)NCc1c[nH]c2c(N)ncnc12	>80	–
CCCCSC[C@@H](CO)NCc1c[nH]c2c(N)ncnc12	16	–
Nc1ncnc2c(CN[C@H](CO)Cc3c[nH]cn3)c[nH]c12	>80	–
CCCCCCCCC[C@@H](CO)NCc1c[nH]c2c(N)ncnc12	80	–
Nc1ncnc2c(CN[C@H](CO)c3ccccc3)c[nH]c12	>80	–
